Patent US8088749B2, “Compositions and methods for treating cancer” (The Regents of the University of Michigan, priority 2007, dated 2012)

How the values were obtained:
Format in all cases: cell-based, human
H2AX = H2AX phosphorylation after gemcitabine, Panc-1 cells; conditions: control Panc-1 cells, gemcitabine 50 uM
Source text: […] Top, flowcytometric analysis of γH2AX and propidium iodide staining of DNA content. […] Bottom, comparison of the total DNA content of the population (black) versus the γH2AX-positive fraction (green). Results are representative 3 separate experiments.

ATDC [1] = test: ATDC phosphorylation in transfected HEK293 cells
Procedure: (B) Knockdown of ATM by specific ATM shRNA prevents IR induced phosphorylation of ATDC in Panc1 cells (n=3). (C) IR-dependent phosphorylation of ATDC occurs at serine 550. HEK 293 cells over-expressing wild type or S550A mutant ATDC were treated with IR (10 Gy) for varyin times (0-60 min). Cell lysates were harvested and co-immunoprecipitation experiments were performed using anti-ATDC and anti-phospho-serine/threonine antibodies. Results are representative of three separate experiments (D) Gemcitabine induces phosphorylation of ATDC in transfected HEK293 cells.
ATDC has overlapping function with ATM in cell cycle checkpoint activation and that trafficking of ATDC to DNA repair foci was dependent on ATM (see, e.g., FIGS. 4,6,7,8). ATDC had been shown previously to undergo phosphorylation on serine/threonine in A431 cells (see, e.g., Laderoute K R, et al., Int J Cancer 1996; 66: 772-778). It was hypothesized therefore that ATDC is a phosphorylation target of ATM and ATR. It is known that phosphorylation targets of ATM/ATR share a common motif, with either a serine or threonine residue, usually followed by a glutamine (the SQ or TQ motif) (see, e.g., Ziv Y, et al., Nature Cell Biol 2006; 8: 870-876). […] It was verified that ATDC functioned downstream of ATM, since silencing of ATDC had no effect on the phosphorylation of ATM in response to IR (FIG. 11A). […]

p53 and Chk1 = test: Phosphorylation of p53 and Chk1 in response to gemcitabine, Panc-1 cells; conditions: gemcitabine 10 μM; control shRNA Panc-1 cells
Procedure: To further investigate the role of ATDC in the DNA damage response, the effect of silencing ATDC on phosphorylation of p53 and Chk1 was investigated. In response to gemcitabine (10 μM), replication forks stall and the ATR signaling cascade is activated, which phosphorylates and activates several proteins critical to inducing the G1-S cell cycle checkpoint, including p53 and Chk1 (see, e.g., Ljungman M, Mutation Res 2005; 577: 203-216).

ATDC [2] = test: ATDC nuclear foci by immunofluorescence after gemcitabine, Panc-1 cells; conditions: gemcitabine (amount/time); 50 uM
Source text: (A). Panc1 cells exposed to IR (5 Gy, 1 hr) were fixed and costained with anti-ATDC (red) and anti-γH2AX (green) antibodies. […] Cell nuclei were counterstained with DAPI (blue). (B) Panc-1 cells exposed to IR (5 Gy, 1 hr) and co-immunostained with anti-ATDC antibody (red) and anti-p-ATM antibody (green). Co-localization of ATDC (red) with p-ATM (green) is observed in yellow in the merged image. Experiments were repeated twice with similar results. […] Results representative of 3 separate experiments.
It has been well-documented that in response to DNA damage, numerous proteins involved in the DNA damage response traffic to discrete nuclear foci. […] Using double immunofluorescence staining, it was observed that ATDC co-localized with γH2AX (FIG. 7A), presumably at DNA damage foci. […] ATDC co-localized with ATR following gemcitabine treatment (FIG. 7B). The time course of ATDC localizing to DNA damage foci was similar to the time course of the formation of foci of phosphorylated H2AX. Whether ATDC is required for the formation of γH2AX and/or ATR foci in pancreatic cancer cells following gemcitabine was investigated.

`Nc1ccn([C@@H]2O[C@H](CO)[C@@H](O)C2(F)F)c(=O)n1` [gemcitabine] was tested, and the “time of induction of H2AX phosphorylation” value (H2AX) was no more than 10 min, the “time of return of H2AX phosphorylation to basal levels” value (H2AX) was 1 h and the H2AX phosphorylation (H2AX; x hours) was “transient H2AX phosphorylation”. For the same compound, the “phosphorylation of ATDC” value (ATDC [1]) was “induces”, the “phosphorylation of p53 and Chk1” value (p53 and Chk1) was “underwent phosphorylation” and the “ATDC nuclear foci formation” value (ATDC [2]) was “ATDC formed discrete nuclear foci”.
